The record followed here is patent EP0923529B1 (Bayer Corporation, priority 1996, dated 1997).

Broadly, the IC50 is the midpoint of a concentration-inhibition curve. High values mean lower potency, low ones higher potency.

What all share (format): biochemical
Experiment [1] concerns the target T1, MMP-3 (Homo sapiens, UniProt P08254).
T1 construct: made in house; host or cells: CHO cells
Description: P218 quenched fluorescence assay (MMP Microfluorometric Profiling Assay), MMP-3. The following applies: P218 substrate 6 µM, 25 min at 37 °C, pH 6.5. The text has this: (§1) The P218 quenched fluorescence assay (Microfluorometric Profiling Assay) is a modification of that originally described by C. G. Knight et al., FEBS Letters, 296, 263-266 (1992) for a related substrate and a variety of matrix metalloproteinases (MMPs) in cuvettes. The assay was run with each exemplary compound of the invention and the three MMPs, MMP-3, MMP-9 and MMP-2, analyzed in parallel, adapted as follows for a 96-well microtitre plate and a Hamilton AT® workstation.
(§2) P218 is a synthetic substrate containing a 4-acetyl-7-methoxycoumarin (MCA) group in the N-terminal position and a 3-(2,4-dinitrophenyl)-(L)-2,3-diaminopropionyl (DPA) group internally. This is a modification of a peptide reported by Knight (1992) that was used as a substrate for matrix metalloproteinases. Once the P218 peptide is cleaved (putative clip site at the Ala-Leu bond), the fluorescence of the MCA group can be detected on a fluorometer with excitation at 328 nm and emission at 393 nm. P218 is currently being produced by BACHEM Bioscience, Inc. exclusively for the Bayer Corp. P218 has the structure: H-MCA-Pro-Lys-Pro-Leu-Ala-Leu-DPA-Ala-Arg-NH2 (MW 1332.2)
Recombinant Human CHO Pro-MMP-3: Human CHO pro-stromelysin-257 (pro-MMP-3) was expressed and purified as described by T. J. Housley et al., J. Biol. Chem., 268, 4481-4487 (1993).
Activation of Pro-MMP-3: Pro-MMP-3 at 1.72 µM (100 µg/mL) in an MMP-3 activation buffer consisting of 5 mM Tris at pH 7.5, 5 mM CaCl2, 25 mM NaCl, and 0.005% Brij-35 was activated by incubation with TPCK (N-tosyl-(L)-phenylalanine chloromethyl ketone) trypsin (1:100 w/w to pro-MMP-3) at 25 °C for 30 min. The reaction was stopped by addition of soybean trypsin inhibitor (SBTI; 5:1 w/w to trypsin concentration).
(§3) Hamilton Microlab AT Plus®: The MMP-profiling assay was performed robotically using a Hamilton MicroLab AT Plus®. The Hamilton was programmed to: (1) serially dilute up to 11 potential inhibitors automatically using a 2.5 mM stock solution of the inhibitor in 100% DMSO; (2) distribute substrate followed by inhibitor into a 96-well Cytofluor plate; and (3) add a single enzyme to the plate with mixing to start the reaction. Subsequent plates for each additional enzyme were prepared automatically by beginning the program at the substrate addition point, remixing the diluted inhibitors, and beginning the reaction by addition of enzyme. In this way, all MMP assays were done using the same inhibitor dilutions.
(§4) Millipore Cytofluor II: Following incubation, the plate was read on a Cytofluor II fluorometric plate reader with excitation at 340 nm and emission at 395 nm with the gain set at 80.
(§5) Microfluorometric Reaction Buffer (MRB): Dilutions of test compounds, enzymes and P218 substrate for the microfluorometric assay were made in microfluorometric reaction buffer (MRB) consisting of 50 mM 2-(N-morpholino)ethanesulfonic acid (MES) at pH 6.5 with 10 mM CaCl2, 150 mM NaCl, 0.005 % Brij-35 and 1% DMSO.
(§6) MMP Microfluorometric Profiling Assay. The assay was done with a final P218 concentration of 6 µM, approximately 0.5 to 0.8 nM of activated MMP (one MMP per 96-well plate), and with variable inhibitor concentrations. The Hamilton MicroLab AT Plus® was programmed to serially dilute up to 11 compounds from a 2.5 mM stock (100% DMSO) to 10-times the final compound concentrations in the assay. Initially, the instrument delivered various amounts of microfluorometric reaction buffer (MRB) to a 96-tube rack of 1 mL Marsh dilution tubes. The instrument picked up 20 µL inhibitor (2.5 mM) and mixed it with buffer in row A of the Marsh rack, resulting in a 50 µM inhibitor concentration. The inhibitors were then serially diluted to 10, 5, 1, 0.2, 0.05 and 0.01 µM. […] The instrument re-mixed and loaded 14.5 µL of diluted compound from rows A to G in the Marsh rack to the corresponding rows in the microtiter plate.

For experiment [2], the target named is T2, MMP-9 (Homo sapiens, UniProt P14780).
T2 construct: made in house
The experiment is described as follows: P218 quenched fluorescence assay (MMP Microfluorometric Profiling Assay), MMP-9. The following applies: P218 substrate 6 µM, 25 min at 37 °C, pH 6.5.
From the text: as §1, §2
Human Recombinant Pro-MMP-9: Human recombinant pro-gelatinase B (pro-MMP-9) derived from U937 cDNA as described by S. M. Wilhelm et al., J. Biol. Chem., 264, 17213-17221 (1989) was expressed as the full-length form using a baculovirus protein expression system. The pro-enzyme was purified using methods previously described by M.S. Hibbs, et al., J. Biol. Chem., 260, 2493-500 (1984).
Activation of Pro-MMP-9 : Pro-MMP-9 (20 µg/mL) in an MMP-9 activation buffer consisting of 50 mM Tris at pH 7.4, 150 mM NaCl, 10 mM CaCl2 and 0.005% Brij-35 was activated by incubation with a 0.5 mM p-aminophenylmercuric acetate (APMA) for 3.5 h at 37 °C. The enzyme was dialyzed against the same buffer to remove APMA.
as §3, §4, §5
as §6, with “plate. […]” for “plate.”

The target in experiment [3] is T3, MMP-2 (Homo sapiens, UniProt P08253).
T3 sequence (P08253 110-660): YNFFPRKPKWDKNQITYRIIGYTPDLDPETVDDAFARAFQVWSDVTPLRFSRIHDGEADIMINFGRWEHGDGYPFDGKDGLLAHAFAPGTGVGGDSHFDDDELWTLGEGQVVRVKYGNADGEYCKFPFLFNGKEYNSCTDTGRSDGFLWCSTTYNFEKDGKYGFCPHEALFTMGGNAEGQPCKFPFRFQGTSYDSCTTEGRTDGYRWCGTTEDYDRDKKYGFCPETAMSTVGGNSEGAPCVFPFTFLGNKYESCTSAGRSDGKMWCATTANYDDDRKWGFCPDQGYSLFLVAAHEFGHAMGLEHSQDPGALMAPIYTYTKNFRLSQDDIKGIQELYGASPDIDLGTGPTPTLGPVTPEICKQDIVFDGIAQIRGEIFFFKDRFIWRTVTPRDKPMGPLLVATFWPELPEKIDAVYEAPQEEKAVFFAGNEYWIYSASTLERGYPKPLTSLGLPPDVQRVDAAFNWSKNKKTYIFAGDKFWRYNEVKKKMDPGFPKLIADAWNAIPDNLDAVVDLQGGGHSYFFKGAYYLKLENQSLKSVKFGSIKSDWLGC
Description: P218 quenched fluorescence assay (MMP Microfluorometric Profiling Assay), MMP-2.

T2 sequence (P14780 107-707 limits assumed): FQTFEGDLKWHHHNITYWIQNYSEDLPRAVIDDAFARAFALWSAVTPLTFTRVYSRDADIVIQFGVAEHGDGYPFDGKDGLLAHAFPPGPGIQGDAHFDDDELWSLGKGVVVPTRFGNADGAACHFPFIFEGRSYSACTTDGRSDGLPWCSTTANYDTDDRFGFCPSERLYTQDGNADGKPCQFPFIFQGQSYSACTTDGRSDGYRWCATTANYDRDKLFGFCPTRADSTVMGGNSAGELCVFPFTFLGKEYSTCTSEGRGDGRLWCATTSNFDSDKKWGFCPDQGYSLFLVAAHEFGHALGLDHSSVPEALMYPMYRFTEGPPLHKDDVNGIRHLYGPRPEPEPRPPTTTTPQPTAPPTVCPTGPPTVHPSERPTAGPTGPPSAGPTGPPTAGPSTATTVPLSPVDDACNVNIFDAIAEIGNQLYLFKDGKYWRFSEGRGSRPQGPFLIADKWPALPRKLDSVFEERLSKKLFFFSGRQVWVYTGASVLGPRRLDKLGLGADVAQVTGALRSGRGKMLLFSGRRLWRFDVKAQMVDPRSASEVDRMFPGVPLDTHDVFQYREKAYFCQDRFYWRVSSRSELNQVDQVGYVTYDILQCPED
T1 sequence (P08254 100-477): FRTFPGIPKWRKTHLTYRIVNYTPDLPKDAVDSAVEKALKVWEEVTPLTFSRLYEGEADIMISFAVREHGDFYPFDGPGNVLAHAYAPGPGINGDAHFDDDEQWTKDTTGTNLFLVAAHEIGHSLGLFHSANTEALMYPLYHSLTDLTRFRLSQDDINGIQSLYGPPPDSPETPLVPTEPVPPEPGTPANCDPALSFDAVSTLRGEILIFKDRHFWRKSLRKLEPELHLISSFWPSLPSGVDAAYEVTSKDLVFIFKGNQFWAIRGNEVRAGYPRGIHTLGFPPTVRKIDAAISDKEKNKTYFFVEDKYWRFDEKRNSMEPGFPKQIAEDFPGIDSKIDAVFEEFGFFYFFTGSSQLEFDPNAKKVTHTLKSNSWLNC

Regarding `O=C(CC(CCN1C(=O)c2ccccc2C1=O)C(=O)O)c1ccc(OCCOCc2ccccc2)cc1` (stereo not drawn) [Example 13, 4-(4-(2-benzyloxyethoxy)phenyl)-4-oxo-2-(2-phthalimidoethyl)butyric acid], the IC50 turned out to be 82 nM in experiment [1], 355 nM in experiment [2] and 53 nM in experiment [3].
